Structures are written as SMILES. pIC50: −log10 of the molar value.

Assay [1] deals with T1, factor B (Homo sapiens, UniProt P00751). Nature of the assay: assay of Biological Example 2.7. The note with it: assay of Biological Example 2.7 (Table 2). Further details: made in house; host or cells: drosophila cells. The class given is binding.
Target sequence in this assay (P00751 26-764): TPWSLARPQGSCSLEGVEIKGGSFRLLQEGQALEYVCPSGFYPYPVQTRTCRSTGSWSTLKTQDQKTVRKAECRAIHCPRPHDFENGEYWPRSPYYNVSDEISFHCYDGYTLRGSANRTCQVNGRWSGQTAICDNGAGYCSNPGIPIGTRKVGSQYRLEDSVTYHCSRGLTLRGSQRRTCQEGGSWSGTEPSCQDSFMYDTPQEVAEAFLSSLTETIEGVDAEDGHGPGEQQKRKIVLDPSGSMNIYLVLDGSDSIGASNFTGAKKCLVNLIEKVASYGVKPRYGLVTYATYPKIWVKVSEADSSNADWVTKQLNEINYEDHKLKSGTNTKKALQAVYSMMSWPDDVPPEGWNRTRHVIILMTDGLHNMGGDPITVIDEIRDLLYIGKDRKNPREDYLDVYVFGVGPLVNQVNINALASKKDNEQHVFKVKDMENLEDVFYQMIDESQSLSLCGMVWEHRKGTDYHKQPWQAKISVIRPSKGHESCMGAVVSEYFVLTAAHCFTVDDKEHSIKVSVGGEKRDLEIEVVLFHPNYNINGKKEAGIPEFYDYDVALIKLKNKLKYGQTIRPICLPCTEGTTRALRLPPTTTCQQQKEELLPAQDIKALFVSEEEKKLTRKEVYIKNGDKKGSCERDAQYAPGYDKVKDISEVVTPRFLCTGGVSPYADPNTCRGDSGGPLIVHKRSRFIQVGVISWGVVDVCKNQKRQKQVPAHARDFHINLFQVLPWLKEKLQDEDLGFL
Assay [2] addresses T1, factor B. As to the kind of experiment: factor B inhibition assay of Biological Example 1. The class given is biochemical. Further details: CVF-Bb complex prepared from purified cobra venom factor (1 μM), recombinant human complement factor B; made in house; host or cells: drosophila cells (factor B); E. coli (factor D used to form the complex). Particulars: IC50 (nM), assay of Biological Example 1 (Table 1).
Target sequence in this assay (P00751 260-764 limits assumed): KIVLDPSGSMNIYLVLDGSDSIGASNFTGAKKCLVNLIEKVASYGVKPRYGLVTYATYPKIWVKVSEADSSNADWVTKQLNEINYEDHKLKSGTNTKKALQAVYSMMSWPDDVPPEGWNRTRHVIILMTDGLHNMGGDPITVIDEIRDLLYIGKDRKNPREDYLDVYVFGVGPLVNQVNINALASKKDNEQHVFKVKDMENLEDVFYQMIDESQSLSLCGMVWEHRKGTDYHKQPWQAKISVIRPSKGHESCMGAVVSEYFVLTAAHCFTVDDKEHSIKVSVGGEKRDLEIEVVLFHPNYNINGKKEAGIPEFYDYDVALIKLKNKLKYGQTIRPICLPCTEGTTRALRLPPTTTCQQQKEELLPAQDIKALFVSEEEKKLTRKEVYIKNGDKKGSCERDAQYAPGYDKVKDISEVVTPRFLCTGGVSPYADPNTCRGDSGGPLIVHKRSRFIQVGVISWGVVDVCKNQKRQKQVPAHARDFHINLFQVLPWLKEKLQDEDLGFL
Target sequence in this assay (Q91132 23-649 partner limits assumed): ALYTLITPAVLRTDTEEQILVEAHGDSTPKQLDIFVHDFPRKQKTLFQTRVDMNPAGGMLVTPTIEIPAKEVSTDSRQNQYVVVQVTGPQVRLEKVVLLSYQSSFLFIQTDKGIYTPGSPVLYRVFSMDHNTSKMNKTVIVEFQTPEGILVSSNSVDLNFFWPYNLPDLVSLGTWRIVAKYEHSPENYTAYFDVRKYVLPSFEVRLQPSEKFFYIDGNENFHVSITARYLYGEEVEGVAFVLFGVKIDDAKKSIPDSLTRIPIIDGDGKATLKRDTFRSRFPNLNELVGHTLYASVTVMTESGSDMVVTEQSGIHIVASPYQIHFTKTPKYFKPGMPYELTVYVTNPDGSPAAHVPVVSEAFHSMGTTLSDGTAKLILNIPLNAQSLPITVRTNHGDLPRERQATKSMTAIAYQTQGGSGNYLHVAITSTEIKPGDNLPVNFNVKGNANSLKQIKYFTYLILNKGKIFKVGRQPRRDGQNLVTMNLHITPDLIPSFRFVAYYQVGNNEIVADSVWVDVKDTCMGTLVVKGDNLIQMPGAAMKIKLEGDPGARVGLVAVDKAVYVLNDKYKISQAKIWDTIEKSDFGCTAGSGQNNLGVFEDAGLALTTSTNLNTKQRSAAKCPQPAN
Target sequence in this assay (Q91132 733-984 partner limits assumed): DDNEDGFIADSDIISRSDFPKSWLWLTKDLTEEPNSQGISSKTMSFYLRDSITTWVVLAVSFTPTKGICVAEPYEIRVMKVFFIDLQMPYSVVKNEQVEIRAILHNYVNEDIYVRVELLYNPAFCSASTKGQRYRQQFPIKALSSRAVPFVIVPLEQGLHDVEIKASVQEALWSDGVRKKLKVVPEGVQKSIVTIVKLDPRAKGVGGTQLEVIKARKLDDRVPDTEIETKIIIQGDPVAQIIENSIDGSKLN
Target sequence in this assay (Q91132 1264-1642 partner limits assumed): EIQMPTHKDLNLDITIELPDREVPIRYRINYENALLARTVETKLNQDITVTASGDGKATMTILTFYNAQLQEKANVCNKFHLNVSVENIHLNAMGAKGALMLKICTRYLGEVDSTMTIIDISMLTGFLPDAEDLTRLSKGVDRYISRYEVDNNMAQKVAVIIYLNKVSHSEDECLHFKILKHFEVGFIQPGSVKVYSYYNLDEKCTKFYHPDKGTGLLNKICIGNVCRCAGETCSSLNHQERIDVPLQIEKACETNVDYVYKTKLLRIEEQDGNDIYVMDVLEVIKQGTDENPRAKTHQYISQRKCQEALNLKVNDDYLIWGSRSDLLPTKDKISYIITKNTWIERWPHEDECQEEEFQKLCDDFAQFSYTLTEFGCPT

A word on the pIC50: it is the IC50 on a negative log10 scale, so that one unit is a factor of ten. Low readings indicate a high IC50, high ones a low IC50. For orientation: IC50 means the concentration that inhibits the measured activity by half. On to `COc1cc(C)c2[nH]ccc2c1C(N)(c1nc2cc(C#N)ccc2[nH]1)C(F)(F)F` (racemic) [36-E b) (−), (−)-2-(1-amino-2,2,2-trifluoro-1-(5-methoxy-7-methyl-1H-indol-4-yl)ethyl)-1H-benzo[d]imidazole-5-carbonitrile], for which, in assay [1], the pIC50 is 7.52. Further, the 50% inhibitory concentration (IC50) in assay [2] was found to be 40 nM.
Taken in the same sequence, the figures for `COc1cc(C)c2[nH]ccc2c1C(C)(OC)c1nc2cc(C#N)ccc2[nH]1` (single isomer, unassigned; (-)) [27-B b) (−), (−)-2-(1-methoxy-1-(5-methoxy-7-methyl-1H-indol-4-yl)ethyl)-1H-benzo[d]imidazole-5-carbonitrile] were 8.40 and 3 nM.
In turn, `COc1cc(C)c2[nH]ccc2c1C(C)(N)c1nc2cc(C#N)ccc2[nH]1` (single isomer, unassigned; (-)) [41-B b) (−), (−)-2-(1-amino-1-(5-methoxy-7-methyl-1H-indol-4-yl)ethyl)-1H-benzo[d]imidazole-5-carbonitrile] showed a pIC50 in assay [1] of 8.00. Besides, the IC50 in assay [2] stood at 9 nM.
Compound `Cc1cc(Br)c(C(C)(N)c2nc3cc(C#N)ccc3[nH]2)c2cc[nH]c12` (single isomer, unassigned; (-)) [137-A b) (−), (−)-2-(1-amino-1-(5-bromo-7-methyl-1H-indol-4-yl)ethyl)-1H-benzo[d]imidazole-5-carbonitrile] had a pIC50 in assay [1] of 7.70.
The compound `[2H]C([2H])([2H])OC(C)(c1nc2cc(C#N)ccc2[nH]1)c1c(OC)cc(C)c2[nH]ccc12` (single isomer, unassigned; (-)) [137-I b) (−), (−)-2-(1-(^2H3)methoxy-1-(5-methoxy-7-methyl-1H-indol-4-yl)ethyl)-1H-benzo[d]imidazole-5-carbonitrile] showed a negative logarithm of the IC50 (pIC50) in assay [1] of 8.00. This pIC50 is 0.30 log units higher than that of the compound before.
`[2H]C([2H])([2H])OC(c1nc2cc(C#N)ccc2[nH]1)(c1c(OC)cc(C)c2[nH]ccc12)C(F)(F)F` (single isomer, unassigned; (-)) [137-J b) (−), (−)-2-(2,2,2-trifluoro-1-(^2H3)-methoxy-1-(5-methoxy-7-methyl-1H-indol-4-yl)ethyl)-1H-benzo[d]imidazole-5-carbonitrile] showed a pIC50 in assay [1] of 8.00.
`COc1cc(C)c2[nH]ccc2c1C(C)(OC)c1nc2cc(C#N)ccc2o1` (single isomer, unassigned; (-)) [137-K b) (−), (−)-2-(1-methoxy-1-(5-methoxy-7-methyl-1H-indol-4-yl)ethyl)benzo[d]oxazole-5-carbonitrile] gave a negative logarithm of the IC50 (pIC50) in assay [1] of 6.70.
Same read-out and setting: with `COC(C)(c1nc2cc(C#N)ccc2o1)c1c(C2CC2)cc(C)c2[nH]ccc12` (single isomer, unassigned; (-)) [137-L b) (−), (−)-2-(1-(5-cyclopropyl-7-methyl-1H-indol-4-yl)-1-methoxyethyl)benzo[d]oxazole-5-carbonitrile] the figure was 6.57.
`COc1cc(C)c2[nH]ccc2c1C(C)(O)c1nc2cc(C#N)ccc2o1` (single isomer, unassigned; (-)) [137-N b) (−), (−)-2-(1-hydroxy-1-(5-methoxy-7-methyl-1H-indol-4-yl)ethyl)benzo[d]oxazole-5-carbonitrile] gave a negative logarithm of the IC50 (pIC50) in assay [1] of 8.22.
`COc1cc(C)c2[nH]ccc2c1C(CC(=O)O)c1nc2cc(C#N)ccc2o1` (single isomer, unassigned; (-)) [Example 148-E, (−)-3-(5-cyanobenzo[d]oxazol-2-yl)-3-(5-methoxy-7-methyl-1H-indol-4-yl)propanoic acid] had a negative logarithm of the IC50 (pIC50) in assay [1] of 6.38.
On to `COc1cc(C)c2[nH]ccc2c1C(CCC(=O)O)c1nc2cc(C#N)ccc2o1` (single isomer, unassigned; (-)) [Example 149-D, (−)-4-(5-cyanobenzo[d]oxazol-2-yl)-4-(5-methoxy-7-methyl-1H-indol-4-yl)butanoic acid], for which the negative-log IC50 (pIC50) in assay [1] was 6.92.
On to `COc1cc(C)c2[nH]ccc2c1C(c1nc2cc(C#N)ccc2[nH]1)C(C)C(=O)O` (single isomer, unassigned; diastereomer a) [Example 147-D, (±)-3-(5-Cyano-1H-benzo[d]imidazol-2-yl)-3-(5-methoxy-7-methyl-1H-indol-4-yl)-2-methylpropanoic acid (Diastereomer A)], for which the negative logarithm of the IC50 (pIC50) in assay [1] was 6.10.
For `COc1cc(C)c2[nH]ccc2c1C(c1nc2cc(C#N)ccc2[nH]1)C(C)C(=O)O` (single isomer, unassigned; diastereomer b) [Example 147-E, (±)-3-(5-Cyano-1H-benzo[d]imidazol-2-yl)-3-(5-methoxy-7-methyl-1H-indol-4-yl)-2-methylpropanoic acid (Diastereomer B)], the pIC50 in assay [1] is 6.80.
Consider `COc1cc(C)c2[nH]ccc2c1C(c1nc2cc(C#N)ccc2[nH]1)C(C)CO` (single isomer, unassigned; diastereomer b) [Example 147-F, (±)-2-(3-hydroxy-1-(5-methoxy-7-methyl-1H-indol-4-yl)-2-methylpropyl)-1H-benzo[d]imidazole-5-carbonitrile (Diastereomer B)], for which the negative logarithm of the IC50 (pIC50) in assay [1] was 7.00.
For the compound `COc1cc(C)c2[nH]ccc2c1C(O)c1nc2cc(C#N)ccc2s1` (stereo not shown) [Example 137-C], in assay [1], the negative-log IC50 (pIC50) is 7.21.
`COc1cc(C)c2[nH]ccc2c1C(C)(N)c1nc2cc(C#N)ccc2s1` (stereo not shown) [Example 137-D] showed a pIC50 in assay [1] of 6.77.
For the compound `COc1cc(C)c2[nH]ccc2c1C(N)c1nc2cc(C#N)ccc2s1` (stereo not shown) [Example 137-E], the negative logarithm of the IC50 (pIC50) in assay [1] is 6.57.
Still for that read-out and setting: with `COc1c(F)c(C)c2[nH]ccc2c1C(C)(N)c1nc2cc(C#N)ccc2[nH]1` (stereo not shown) [Example 137-G] the figure was 7.54; with `COc1c(F)c(C)c2[nH]ccc2c1C(C)(OC)c1nc2cc(C#N)ccc2[nH]1` (stereo not shown) [Example 137-H], 7.51; with `Cc1cc(C)c2[nH]ccc2c1C(O)c1nc2ccc(C#N)cc2s1` (stereo not shown) [Example 137-O], 5.50.
`Cc1cc(C)c2[nH]ccc2c1C(O)c1cc2cc(C#N)ccc2[nH]1` (stereo not shown) [Example 137-P]: the negative-log IC50 (pIC50) in assay [1] was 6.01.
Compound `Cc1cc(C)c2[nH]ccc2c1C(O)c1cc2cc(C#N)ccc2o1` (stereo not shown) [Example 137-Q] gave a pIC50 in assay [1] of 5.87.
The same measure, in the same setting: under `Cc1cc(C)c2[nH]ccc2c1C(O)c1nc2cc(C#N)ccc2s1` (stereo not shown) [Example 137-R] stands 6.10.
Same read-out and setting: with `COc1cc(C)c2[nH]ccc2c1C(C)(O)c1nc2ccc(C#N)cc2s1` (stereo not shown) [Example 137-S] the figure was 6.96.
`COc1cc(C)c2[nH]ccc2c1C(C)(O)c1cc2ccc(C#N)cc2[nH]1` (stereo not shown) [Example 137-T] gave a pIC50 in assay [1] of 7.30.
Regarding `COc1cc(C)c2[nH]ccc2c1C(C)(O)c1cc2cc(C#N)ccc2[nH]1` (stereo not shown) [Example 137-U], in assay [1], the pIC50 was 7.46.
For `COc1cc(C)c2[nH]ccc2c1C(C)(O)c1cc2cc(C#N)ccc2o1` (stereo not shown) [Example 137-V], the pIC50 in assay [1] was 7.64.
Still for that read-out and setting: under `COc1cc(C)c2[nH]ccc2c1C(C)(OC)c1nc2ccc(C#N)cc2s1` (stereo not shown) [Example 137-W] stands 5.28.
`COc1cc(C)c2[nH]ccc2c1C(C)(O)c1cc2ccc(C#N)cc2o1` (stereo not shown) [Example 137-X]: in assay [1], the pIC50 is 6.72.
For `COc1cc(C)c2[nH]ccc2c1C(C)(OC)c1cc2ccc(C#N)cc2o1` (stereo not shown) [Example 137-Y], the negative-log IC50 (pIC50) in assay [1] was 6.09.
In assay [1], `COc1cc(C)c2[nH]ccc2c1C(C)(OC)c1cc2cc(C#N)ccc2o1` (stereo not shown) [Example 137-Z] had a negative logarithm of the IC50 (pIC50) of 6.28.

The values are drawn from patent US9056874B2, “Complement pathway modulators and uses thereof” (NOVARTIS AG, priority 2012, dated 2015).
